The values below come from patent US12178846B2, “Methods of using gap junctions as therapeutic targets for the treatment of degenerative disorders of the retina” (The Research Foundation for The State University of New York, priority 2014, dated 2024).

In assay [1] the test system is amacrine cells in the INL. Put plainly: NMDA-induced excitotoxic loss of amacrine cell subpopulations in the INL. Type of assay: cell-based, mouse. The procedure: Various methods were employed to produce cell death. (1) Single cell apoptosis: CytC was injected into individual RGCs or Müller cells for 15 minutes after which retinas were incubated for 4 hours in oxygenated Ames medium before fixation. […] Both control and drug-treated retinas were then exposed for 1 hour to NMDA (100-300 μM) to induce excitotoxicity followed by 4 hours in the control Ames solution. (3) Retinal ischemia: Transient in vivo retinal ischemia was induced by introducing into the anterior chamber a 33-gauge needle attached to a saline-filled reservoir (0.9% sodium chloride) that was raised above the animal so as to increase intraocular pressure (IOP) to a level […]. MFA (2 μl, 500 μM) was administered intravitreally either 30 minutes before or 3 and 24 hours following the ischemic insult. The opposite eye was cannulated, but maintained at normal IOP to serve as a normotensive control. After 40-50 minutes, the needle was withdrawn and ischemia was evidenced by corneal whitening. After 7 days of reperfusion, mice were sacrificed and eyes were processed to assess retinal damage and neuronal death. […]
In some experiments, cells counts were limited to retrograde labeled RGCs in the GCL or certain subpopulation of amacrine cells, identified by specific markers, such as calretinin (CR), calbindin (CB) and choline acetyltransferase (ChAT) in the INL. Fluorescence intensity measures were made of glial fibrillary acidic protein (GFAP), which is overexpressed in Müller glial cells following retinal injury. Expression of GFAP and connexins were quantified by analysis of confocal images with Metavue software (Molecular Devices). Average pixel fluorescence intensities were measured by using uniform rectangular areas (3-5 per image) extending either from the GCL to the outer limiting membrane for GFAP or through the IPL for connexins. […]

A further assay relates to GJs. Put plainly: Retrograde Neurobiotin labeling of amacrine cells coupled to RGCs. Format: cell-based, mouse. The procedure:
After experimental treatment, retinas were fixed with 4% paraformaldehyde in a 0.1 M phosphate buffer solution (PBS; pH 7.4) for 30 minutes at room temperature, cryoprotected in 30% sucrose, embedded in Tissue-Tek OCT Compound (Andwin Scientific) and frozen. Cryosections (18-20 μm thick) were cut and mounted on microscope slides. For immunostaining, sections were blocked in 3% donkey serum in 0.1M PBS supplemented with 0.5% Triton X-100, and 0.1% NaN3 for 1 h at room temperature. Primary antibodies were diluted in 0.1M PBS with 0.5% Triton X-100, 0.1% NaN3 and 1% donkey or goat serum. Tissues were then incubated with primary antibodies for 3 hours at room temperature or overnight at 4° C. The following primary antibodies were used: rabbit anti-calretinin 1:2000, rabbit anti-calbindin 1:1000, goat ant-ChAT 1:100 (all from Millipore), rabbit anti-GFAP 1:1000 (Invitrogen), rabbit anti-active caspase 3 1:200 (Abcam); mouse anti-Cx35/36 1:300, mouse anti-Cx45 1:300 (both from Millipore). After extensive washing with 0.1M PBS, tissues were incubated for 1 hour in secondary anti-goat/rabbit/mouse antibodies conjugated to Alexa-488 or Alexa-594 (1:200, Molecular Probes). Retinal sections were counterstained with the nuclear dye propidium iodide (PI, Molecular Probes). Neurobiotin was visualized with Alexa-488/594 conjugated streptavidin (Molecular Probes, 1:200). Tissues were then flat-mounted in Vectashield media (Vector Labs) and fluorescent images were taken using a fluorescent microscope or an Olympus FV1200 MPE confocal microscope.
We used retrograde labeling of RGCs with Neurobiotin to visualize populations of amacrine cells in the inner nuclear layer (INL) to which they were coupled. Globes with attached optic nerves were submersed in oxygenated Ames medium and a drop of Neurobiotin (4% in 0.1 M Tris buffer) was applied to the cut optic nerve for 40 minutes. For retrograde labeling limited to RGCs, Neurobiotin was replaced with Lucifer yellow (LY, 3%). […]

The subject of another assay is NMDA receptors. The settings on record: at the concentrations tested here; cited from earlier work.
Setting [2] is: MFA 50 μM 30 min, NMDA 300 μM 1 h, p<0.01.

“Also recorded” adds a separate entry of the source.

Take `Cc1ccc(Cl)c(Nc2ccccc2C(=O)O)c1Cl` [MFA, meclofenamic acid]: in assay [1] (setting [2]), the “number of CB-immunolabeled ACs in the INL” value is “prevented the loss; also recorded: prevented such reduction” and the “number of CR-immunolabeled ACs in the INL” value is “prevented the loss; also recorded: prevented reduction”. Also, the “number of ChAT-positive ACs in the INL” value in assay [1] (MFA, NMDA-induced excitotoxicity, p>0.1) was “nor was this affected”. Further, in the assay on GJs (MFA application, p>0.1), the “number of ChAT-positive ACs labeled with Neurobiotin” value is recorded as “did not produce a significant reduction; also recorded: little effect”. Moreover, in the assay on GJs (MFA prior to retrograde labeling, p<0.01), the “Neurobiotin labeling of CR-positive ACs in the INL (coupling to RGCs)” value is on record as “effectively eliminated all colocalized labeling; also recorded: significantly reduced”. Also, the “total number of CR-IR cells in the INL (per 500 μm section)” value with GJs (MFA-treated retinas vs control, p>0.1) is “comparable to that in control”. The “inhibitory effect on NMDA receptors in neurons” value in the assay on NMDA receptors was “no inhibitory effect”.
